The subject of data set [1] is retinal pigment epithelium (RPE). Nature of the data set: Delayed sodium iodate challenge rabbit model, RPE lesion area by fluorescein angiography. The class given is in vivo, Dutch-belted rabbit. The note with it: for protection against sodium iodate-induced lesion (lesion size): no statistically significant difference between the two doses. As to the method:
A 20 mg/mL stock solution of sodium iodate (NaIO3, Sigma Aldrich, St. Louis, MO, USA, Cat#54007) was prepared in sterile 0.9% injectable saline (Cytiva, Marlborough, MA, USA, Z1376), aliquoted into single-use vials, and stored at −20 °C until use. On the day of dosing, aliquots were thawed at room temperature and used immediately. For NaIO3 administration, rabbits were weighed and anesthetized with 2–5% isoflurane (Dechra, Norwich, United Kingdom, 17033-094-25) delivered in medical-grade oxygen at a flow rate of 1.0 to 1.5 L/min via chamber until sedated, then moved to facemask for the injection procedure. The left ear was shaved and disinfected with […] prior to intravenous injection. An indwelling catheter was inserted into the marginal ear vein and flushed with sterile 0.9% injectable saline to ensure patency. Sodium iodate was administered intravenously at a dose of 18 mg/kg body weight, followed by a 0.3 mL saline flush. […] Ten animals were used in each treatment group and 6 animals served as the naïve control group.
Fluorescein angiography was performed following topical anesthesia of the rabbit eyes with proparacaine hydrochloride 0.5% (Akorn, 24208-730-06) and pharmacologic dilation with tropicamide (Akorn, 17478-102-12) and phenylephrine (Akorn, 17478-206-12). The rabbits were anesthetized with isoflurane and the ear was prepared as stated above. A 50 µL bolus of 10% sodium fluorescein (Akorn, 59399-001-04) was injected into the marginal ear vein and allowed to circulate for at least 2 min prior to imaging. Fundus images were captured (Spectralis, Heidelberg Engineering) to document and quantify the extent of visible choroidal and RPE degeneration in both eyes. The area of RPE depigmentation was quantified using ImageJ software (version 1.51j8). In certain cases where the damage extended well into the periphery it was not possible to image the entire edge of the affected area, and these cases were labeled “too large to grade” and were excluded from the final analysis.
With a favorable pharmacokinetic profile, we next evaluated the durability of ONL1204 protection. […] The dose of the systemic sodium iodate had been selected based on a titration that identified a level of systemic sodium iodate that led to localized and quantifiable damage to the rabbit RPE. This damage was assessed one day after sodium iodate administration by quantifying the depigmented lesion area, defined as regions of visible choroid (“window defect”) on fluorescein angiography (Figure 3A,B).

Data set [2] has the same test system. Nature of the data set: Chronic CS/HFD apoB100 mouse model of dry AMD, RPE morphology on ZO-1 flatmounts. It is filed as in vivo. As to conditions: apoB100 mice, 6 months CS/HFD, two IVT injections 6 weeks apart; p < 0.05. From the text:
For the mouse study, an equal number of male and female apolipoproteinB100 (apoB100) mice on a C57/S129 background were used. These animals carry a mutation in the editing gene apobec1, resulting in the predominant production of apoB100 in these mice, contrasting to the majority of mice that predominantly produce apoB48 [24]. For all mice strains, the rd8 mutation was bred out. Mice were fed a standard diet until they were put in the smoking chamber and then were fed a high-fat diet (HFD) consisting of 60% fat, 20% protein, and 20% carbohydrate (Research Diets, Inc., New Brunswick, NJ, USA). The study was approved by the Johns Hopkins IACUC. […]
For retinal and RPE flatmount immunofluorescence confocal microscopy, mice were euthanized and eyes enucleated (7 eyes/treatment group) to be processed for staining for IBA1 (microglia/monocyte marker) and ZO-1 (RPE morphology). […] For retinal quadrants, microglia/monocytes/macrophages, defined by IBA1-immunolabeled cell bodies, were counted in five 20 × power fields per flatmount. For RPE/choroid quadrants, each image was used to measure the RPE cell aspect ratio and the average size per cell using ImageJ after setting a threshold as indicated by the software At least 15 cells were measured/experimental group, with n = 5 animals/group, using our previously published protocol.

The next data set relates to caspase-8. Nature of the data set: Caspase-8 activity assay in RPE lysates of CS/HFD apoB100 mice. The class given is in vivo. As to conditions: chronic CS/HFD, two IVT injections, p < 0.05. Here is the method:
(§1) At 8 weeks of age, male and female mice were placed in a smoking chamber for 5 h/day, 5 days/week for 6 months following our published protocol.
After the retina and RPE/choroid were harvested, protein was extracted using RIPA Buffer (Sigma-Aldrich, St Louis, MO, USA) with Proteinase inhibitor and phosphatase inhibitor. Nine eyes per treatment group were used in this assay, and each sample included 75 μg of protein to standardize the amount of tissue with the Luminescent Caspase-Glow 8 assay kit (Promega, Madison, WI, USA) used according to manufacturer’s protocol. […]

Data set [3] concerns IBA1+ inflammatory cells in the retina. The data set can be described thus: IBA1+ cell count in retinal flatmounts of CS/HFD apoB100 mice. It is filed as in vivo. As to conditions: chronic CS/HFD, two IVT injections, p < 0.000001. As to the method: as §1
For retinal and RPE flatmount immunofluorescence confocal microscopy, mice were euthanized and eyes enucleated (7 eyes/treatment group) to be processed for staining for IBA1 (microglia/monocyte marker) and ZO-1 (RPE morphology). The anterior segments were removed, and the retina was carefully separated from the RPE/choroid complex. Tissues were fixed in 2% paraformaldehyde in Tris-buffered saline (TBS) at 4 °C overnight. Retina flatmounts were processed with TBS/1% bovine serum albumin (BSA) and 5% donkey serum overnight at 4 °C. The flatmounts were then incubated with goat polyclonal anti-AIF-1/IBA1 antibody (1:50; Novus biologicals, Centennial, CO, USA) for 48 h at 4 °C, washed, and incubated with donkey anti-goat Cy3 secondary antibody (Abcam, Cambridge, MA, USA) overnight at 4 °C [27]. […] For retinal quadrants, microglia/monocytes/macrophages, defined by IBA1-immunolabeled cell bodies, were counted in five 20 × power fields per flatmount. For RPE/choroid quadrants, each image was used to measure the RPE cell aspect ratio and the average size per cell using ImageJ after setting a threshold as indicated by the software At least 15 cells were measured/experimental group, with n = 5 animals/group, using our previously published protocol.

For data set [4] the following is noted: rabbit, in vivo.
Excerpt: (§2) Prior to injection, each eye was moistened with an ophthalmic Betadine solution, which was then washed out of the eyes with sterile saline. Then, 0.5% proparacaine was applied to the ocular surface prior to the injection.
(§3) For both studies, animals were euthanized at the indicated time points. Eyes were enucleated, snap frozen in liquid nitrogen, and stored frozen until dissection for collection of vitreous, retina, and RPE/choroid for bioanalysis. […] For statistical determination, all values that were below the lower limit of quantification (LLOQ) were considered zero. Pharmacokinetic analysis was performed from the composite concentration versus time data generated for ocular tissue samples through Day 84 using Phoenix WinNonlin (version 8.5.2.4) software.
The conditions of data set [5]: minipig, in vivo.
Description: (§4) Prior to the IVT injection, a combination of 100 mg Telazol, 50 mg ketamine, and 50 mg xylazine per mL of solution was administered via intramuscular injection at 0.03–0.06 mL/kg. For two animals, dexmedetomidine (0.02 or 0.03 mg/kg) was administered as a supplementary anesthetic via intramuscular injection. Proparacaine was then administered to eye, followed by tropicamide. The area surrounding the eye was swabbed with an ophthalmic Betadine solution.
as §3
For data set [6] the following is noted: minipig, in vivo. This is another data set of the same source.
Description: as §4, §3
Data set [7] in a line: in vivo. As to conditions: Dutch-belted, rabbit.
Excerpt: as §2, §3
A short description of data set [8]: in vivo. As to conditions: Göttingen, minipig.
Description: as §4, §3
The conditions of data set [9]: human, in vivo; cited from earlier work.
In the next data set the test system is GA lesion growth. Set-up: method as in PMID 37696275, PMID 37865470. As to conditions: patients with geographic atrophy, after one year of treatment, relative to sham; range given for either agent; cited from earlier work.
The mark [10] stands for this setting: 10 ug/eye, Average concentration of ONL1204 in RPE/choroid.
Setting [11] is: 10 ug/eye, Average concentration of ONL1204 in retina.
Setting [12] is: 50 ug/eye, Average concentration of ONL1204 in RPE/choroid.
Setting [13] is: 50 ug/eye, Average concentration of ONL1204 in retina.
Where [14] appears, read: 100 ug/eye, Average concentration of ONL1204 in RPE/choroid.
[15] abbreviates: 100 ug/eye, Average concentration of ONL1204 in retina.
The mark [16] stands for this setting: 200 ug/eye, Average concentration of ONL1204 in RPE/choroid.
Where [17] appears, read: 200 ug/eye, Average concentration of ONL1204 in retina.
[18] abbreviates: 300 ug/eye, Average concentration of ONL1204 in RPE/choroid.
[19] abbreviates: 300 ug/eye, Average concentration of ONL1204 in retina.

Like-named read-outs stand apart in the source and are kept apart here. No end group written: not given here. Some results are limits rather than exact numbers.

As to “HHIYLGAVNYIY-NH2 (C-terminus assumed) [ONL1204]”, the “protection against sodium iodate-induced lesion (lesion size)” value in data set [1] (single IVT 25 µg on Day 0, sodium iodate 18 mg/kg i.v. on Day 4) was “comparable levels of protection”; in [1] (single IVT 100 µg on Day 0, sodium iodate 18 mg/kg i.v. on Day 4) it was “comparable levels of protection”. For the same substance, the “lesion area vs vehicle-treated controls and 25 µg group” value in data set [1] (single IVT 100 µg on Day 0, sodium iodate on Day 14) is on record as “significantly smaller lesion areas”; in data set [1] (single IVT 100 µg on Day 0, sodium iodate on Day 28), “significantly smaller lesion areas”. In addition, the “posterior RPE cell area vs vehicle” value in data set [2] was “significantly lower than the control”. In addition, the “Caspase-8 activity in whole RPE lysates vs vehicle” value in the data set on caspase-8 was “significantly reduced”. In addition, in [3], the “IBA1+ inflammatory cell infiltration in the retina vs vehicle” value is reported as “decreased”.

A word on the half-life: it is the time needed for the level to fall by half in the phase considered. Turning to HHIYLGAVNYIY-NH2 [ONL1204], the stability in plasma result is “rapidly broken down by peptidases”. In addition, the half-life in [4] (10 ug, calculated vitreous half-life) is 147 days. In data set [4] (50 ug, calculated vitreous half-life), the half-life is 116 days. The half-life in [4] (100 ug, calculated vitreous half-life) was 124 days. Besides, the half-life in data set [4] (vitreous humor half-life) is greater than 100 days. For the same substance, the half-life in data set [5] (half-life calculated from the vitreous humor data) is 112 days. This substance also gave a half-life in data set [5] (vitreous humor half-life) greater than 100 days. In addition, the “half-life calculated from the vitreous humor data” value in data set [6] is 117.18 days. In the data set “in vivo [7]” (setting [10]), this substance returned a tissue level at time at 24 h of 5.45 ng/g, a tissue level at time at 672 h of 10.5 ng/g, a tissue level at time at 1344 h of 144 ng/g and a tissue level at time at 1992 h of 213 ± 207 ng/g. In the data set “in vivo [7]” (setting [11]), this substance had a tissue level at time at 24 h of 11.2 ± 8.4 ng/g, a tissue level at time at 672 h of 51 ± 97.9 ng/g and a tissue level at time at 1344 h of 14.3 ± 15.1 ng/g. In “in vivo [7]” (setting [12]), this substance had a tissue level at time at 24 h of 58 ± 79.8 ng/g, a tissue level at time at 672 h of 92.4 ng/g, a tissue level at time at 1344 h of 61.8 ng/g and a tissue level at time at 1992 h of 209 ± 251 ng/g. Besides, in the data set “in vivo [7]” (setting [13]), the tissue level at time at 24 h was 75.6 ± 144 ng/g, the tissue level at time at 672 h was determined as 27 ± 36.6 ng/g, the tissue level at time at 1344 h worked out at 37.8 ± 48.4 ng/g and the tissue level at time at 1992 h came out at 201 ± 268 ng/g. In the data set “in vivo [7]” (setting [14]), this substance gave a tissue level at time at 24 h of 174 ± 149 ng/g, a tissue level at time at 672 h of 40.6 ng/g and a tissue level at time at 1344 h of 36.2 ± 41 ng/g. In “in vivo [7]” (setting [15]), this substance registered a tissue level at time at 24 h of 183 ± 346 ng/g, a tissue level at time at 672 h of 42.3 ± 72.1 ng/g, a tissue level at time at 1344 h of 22.7 ± 27.9 ng/g and a tissue level at time at 1992 h of 86.1 ± 103 ng/g. Besides, in “in vivo [8]” (setting [16]), the tissue level at time at 144 h stood at 189 ± 160 ng/g, the tissue level at time at 672 h was found to be 66.5 ± 87.8 ng/g and the tissue level at time at 2112 h turned out to be 38.2 ± 21.7 ng/g. In “in vivo [8]” (setting [17]), this substance gave a tissue level at time at 144 h of 17.8 ± 27.3 ng/g and a tissue level at time at 672 h of 2.05 ng/g. In “in vivo [8]” (setting [18]), this substance showed a tissue level at time at 144 h of 101 ± 91.4 ng/g, a tissue level at time at 672 h of 82.4 ± 34.5 ng/g and a tissue level at time at 2112 h of 29.8 ng/g. In the data set “in vivo [8]” (setting [19]), the tissue level at time at 144 h worked out at 7.2 ± 6.37 ng/g and the tissue level at time at 672 h was 23.8 ± 16.4 ng/g. Moreover, the “safety in Phase 1 clinical trial” value in data set [9] is given as “safe”.

As for avacincaptad pegol, the “reduction of the rate of GA lesion growth” value in the data set on GA lesion growth was 14–26%.

With pegcetacoplan, the “reduction of the rate of GA lesion growth” value with GA lesion growth is 14–26%.

The values are drawn from PMC12467535 (Biomedicines, 2025).
